The values that follow come from PMC9457815 (Molecules, 2022).

One series has as its target T1, AChE (Electrophorus electricus, UniProt O42275).
T1 construct: purchased Abcam ab138871
In words: biochemical. Particulars: substrate ATCh; nid = no inhibition detected at 1 mM. Format: biochemical, electric eel. As to the method:
(§1) Pharmacological properties specific to AD were tested first on AChEs (electric eel) according to the kit (ab138871, Abcam) that provides a colorimetric measure of enzyme activity and inhibition. Briefly, the reaction was performed in a final volume of 100 μL in 96-well microplates. […] For this, DMSO-dissolved test compounds were added to a final concentration of 1 mM (1% DMSO) in duplicates. Next, a 5 μL reaction mixture containing equal amounts of acetylthiocholine (20X) and DTNB (20X) was added to each well. Ultimately, the enzyme solution was added to a final concentration of 0.25 U/mL and the absorbance was measured at 412 nm in kinetic mode for 10 min using a microplate reader (Synergy H1, Biotek, Dorval, QC, Canada). The same procedure was utilized for the BuChE (equine, Sigma-Aldrich) activity test, except that the enzyme concentration was 2 U/mL per reaction. DTNB (Bis(3-carboxy-4-nitrophenyl) disulfide, Ellman’s Reagent), acetylthiocholine iodide, and butyrylthiocholine iodide were purchased from Sigma-Aldrich (Oakville, ON, Canada). […] Experiments were performed at least twice. Inhibition was calculated as follows:I = 100 × (1 − Δi/Δe) where Δi is the difference in the absorbance between two time points in the presence of the inhibitor, and Δe is the difference in the absorbance using two time points in presence of DMSO or an appropriate solvent.

The test system of another series is Huh7 cells. The series can be described thus: Cytotoxicity assay (Cell-Titer GLO, cellular ATP levels) on Huh7 cells. The class given is cell-based, human. Particulars: 200 µM. As to the method: (§2) Briefly, 7.5 × 10^3 Huh7 cells/well or 2 × 10^4 THP-1 cells/well were plated in black 96-well plates and incubated at 37 °C for 24 h. […] Each dilution was added to the cell plates to obtain final concentrations of 6.25 µM to 200 µM for alkaloids and DMSO, and 0.39 µM to 50 µM for lycorine. […] The plates were then incubated at 37 °C and 5% CO2 for 72 h. Cell-Titer GLO reagent was added to the plates previously equilibrated to room temperature. The plates were then mixed on an orbital shaker for 2 min and incubated for 10 min at room temperature. The luminescence signal was measured with a microplate spectrophotometer (Synergy H1, Biotek, Dorval, QC, Canada). Viability percentages were obtained by calculating the ratio of the signal corresponding to each alkaloid concentration to the signal of the equimolar DMSO control. All experiments were performed at least twice. Median cytotoxic concentrations (CC50) were calculated using QuestGraph IC50 calculator software (MLA Quest Graph™ IC50 Calculator, AAT Bioquest, Inc., Sunnyvale, CA, USA).

Assay in series [1]: as above
Format: cell-based, human. Particulars: human; Huh7 cells, 72 h, ATP levels. The procedure:
as §2

A further series relates to DENVGFP. In words: Antiviral assay, propagative DENVGFP vector in Huh7 cells, flow cytometry. As to conditions: Dengue virus, Huh-7, 72 h, read-out: EC50 DENV. Format: cell-based, dengue virus (serotype 2). The procedure:
(§3) The plasmid used to obtain the DENVGFP vector (pFK-DVs-G2A) was provided by Ralf Bartenschlager (Heidelberg University, Heidelberg, Germany) and Laurent Chatel-Chaix (Institut National de la Recherche Scientifique, Laval, QC, Canada). The 2 plasmids used to obtain the HIV-1GFP vector were PMD2.G and pNL4-3-GFPΔEnvΔNef. For DENVGFP, viral titer was measured using a plaque assay in Vero cells, as described in [53]. For HIV-1GFP, the viral titer was obtained by measuring the infectivity of serially diluted vectors in CRFK cells, as described in [54].
(§4) Briefly, 7.5 × 10^3 Huh7 cells/well or 2 × 10^4 THP-1 cells/well were plated in 96-well plates at 37 °C for 24 h. […] Each dilution was added to the cell plates to obtain final concentrations of 1.56 µM to 200 µM for alkaloids and matched concentrations of DMSO, and 0.05 µM to 6.4 µM for lycorine or 0.078 µM to 10 µM for raltegravir. Lycorine and raltegravir were used as DENV and HIV-1 inhibitor controls, respectively. DENVGFP and HIV-1GFP were then added at multiplicities of infection (MOIs) of 0.025 and 0.1, respectively. Plates were placed in an incubator at 37 °C and 5% CO2 for 72 h. Afterward, the cells were fixed in 3.7% formaldehyde and the percentage of infection was measured using flow cytometry with an FC500 MPL cytometer (Beckman Coulter, Inc., Brea, CA, USA). Data analysis was performed using Flowjo software (BD, FlowJo LLC, Ashland, OR, USA). All experiments were performed at least twice. EC50 values were calculated using QuestGraph IC50 calculator software (MLA Quest Graph™ IC50 Calculator. AAT Bioquest, Inc. https://www.aatbio.com/tools/ic50-calculator (accessed on 1 July 2022)).

The subject of another series is THP-1 cells. The series can be described thus: Cytotoxicity assay (Cell-Titer GLO, cellular ATP levels) on THP-1 cells. Format: cell-based, human. As to conditions: 100 µM, killing a majority of the cells. As to the method: as §2
Assay in series [2]: as above
The class given is cell-based, human. As to conditions: human; THP-1 cells, 72 h, ATP levels. As to the method:
as §2

In the next series the target is T2, POP (Homo sapiens, UniProt P48147).
T2 construct: purchased BPS Bioscience Inc
T2 sequence (P48147 1-710): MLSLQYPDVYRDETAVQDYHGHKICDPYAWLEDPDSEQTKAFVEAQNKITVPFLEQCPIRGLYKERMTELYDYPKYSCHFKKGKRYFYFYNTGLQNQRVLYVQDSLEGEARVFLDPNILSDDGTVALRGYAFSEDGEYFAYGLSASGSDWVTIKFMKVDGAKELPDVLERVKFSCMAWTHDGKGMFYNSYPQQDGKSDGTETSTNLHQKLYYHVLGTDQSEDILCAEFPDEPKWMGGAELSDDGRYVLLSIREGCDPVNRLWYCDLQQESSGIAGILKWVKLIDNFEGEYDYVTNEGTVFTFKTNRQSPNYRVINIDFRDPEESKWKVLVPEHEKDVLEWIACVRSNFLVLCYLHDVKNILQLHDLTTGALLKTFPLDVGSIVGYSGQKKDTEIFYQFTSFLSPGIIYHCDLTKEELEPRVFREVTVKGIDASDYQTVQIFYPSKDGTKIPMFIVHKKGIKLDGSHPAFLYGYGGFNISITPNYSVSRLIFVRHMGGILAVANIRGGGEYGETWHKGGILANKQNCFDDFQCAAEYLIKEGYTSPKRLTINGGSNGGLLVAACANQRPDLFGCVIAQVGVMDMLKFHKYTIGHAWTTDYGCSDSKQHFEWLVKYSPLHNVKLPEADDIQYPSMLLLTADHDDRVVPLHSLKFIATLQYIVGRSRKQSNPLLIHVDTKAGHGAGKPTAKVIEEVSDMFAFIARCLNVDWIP
In words: Prolyloligopeptidase (POP) inhibition assay, fluorogenic kit. Format: biochemical. Particulars: substrate DPP (Ala-Pro-AMC dipeptide); nid = no inhibition detected at 1 mM; read-out: IC50 POP. As to the method:
POP enzyme activity was measured using the Fluorogenic POP Assay Kit (BPS Bioscience Inc., San Diego, CA, USA). The reaction was carried out in a final volume of 50 μL in a low-binding NUNC microtiter plate. All compounds were tested at a final concentration of 250 μM in duplicate. A DPP substrate was added to a final concentration of 2.5 μM and the POP enzyme solution was subsequently added to a final concentration of 1 ng/μL. Optical densities at 440 nm were recorded using a microplate reader (Synergy H1, Biotek, QC, Canada).

In another series the target is T3, BuChE (Equus caballus, UniProt P81908).
T3 construct: purchased Sigma-Aldrich
T3 sequence (P81908 whole entry): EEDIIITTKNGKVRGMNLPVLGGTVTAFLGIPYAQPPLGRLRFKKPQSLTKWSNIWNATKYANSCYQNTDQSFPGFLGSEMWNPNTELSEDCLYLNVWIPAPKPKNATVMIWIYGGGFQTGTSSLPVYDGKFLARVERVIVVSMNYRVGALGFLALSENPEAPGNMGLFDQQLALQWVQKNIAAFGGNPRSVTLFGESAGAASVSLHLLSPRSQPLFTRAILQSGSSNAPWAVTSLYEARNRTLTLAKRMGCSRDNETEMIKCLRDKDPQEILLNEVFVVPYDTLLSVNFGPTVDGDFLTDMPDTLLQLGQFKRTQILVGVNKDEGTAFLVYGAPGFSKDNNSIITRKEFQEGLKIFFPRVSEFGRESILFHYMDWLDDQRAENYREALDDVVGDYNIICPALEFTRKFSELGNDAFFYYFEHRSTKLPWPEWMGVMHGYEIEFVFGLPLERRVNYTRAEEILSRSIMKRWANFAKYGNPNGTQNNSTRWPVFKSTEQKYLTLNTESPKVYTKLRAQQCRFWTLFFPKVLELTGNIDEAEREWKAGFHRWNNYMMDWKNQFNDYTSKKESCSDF
The series can be described thus: biochemical. Particulars: nid = no inhibition detected at 1 mM. More on the design: species or system equine. As to the method:
as §1

In another series the test system is HIV-1GFP. In words: microbe, parasite or virus in culture. The class given is cell-based, human immunodeficiency virus (HIV)-1. The procedure: as §3, §4

T1 sequence (O42275 24-633): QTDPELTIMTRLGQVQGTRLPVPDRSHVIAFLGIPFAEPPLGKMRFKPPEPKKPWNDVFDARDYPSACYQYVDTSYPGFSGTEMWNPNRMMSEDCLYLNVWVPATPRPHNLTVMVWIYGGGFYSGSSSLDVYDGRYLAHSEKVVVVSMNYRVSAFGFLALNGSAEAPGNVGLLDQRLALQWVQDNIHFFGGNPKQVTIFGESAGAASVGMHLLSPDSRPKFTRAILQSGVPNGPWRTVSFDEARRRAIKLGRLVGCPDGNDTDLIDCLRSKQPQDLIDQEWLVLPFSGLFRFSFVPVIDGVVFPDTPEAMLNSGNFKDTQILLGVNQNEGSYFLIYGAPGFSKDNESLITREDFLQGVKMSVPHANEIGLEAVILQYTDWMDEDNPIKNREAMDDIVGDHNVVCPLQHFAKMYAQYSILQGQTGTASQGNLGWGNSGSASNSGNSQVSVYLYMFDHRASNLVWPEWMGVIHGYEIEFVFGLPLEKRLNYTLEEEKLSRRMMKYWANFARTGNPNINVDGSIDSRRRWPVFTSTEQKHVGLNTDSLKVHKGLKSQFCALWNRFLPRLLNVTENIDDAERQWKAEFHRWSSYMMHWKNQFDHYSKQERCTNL

On to `Oc1ccc(CC/N=C/c2ccc(O)c(O)c2)cc1` [Norcraugsodine], for which the “IC50 AChE” value on AChE is given as “nid”. Besides, the “cell death, Huh7 cells” value with Huh7 cells is 50%. The CC50 at 72 h in [1] was determined as 122 µM; in [2], 27 µM. Further, the EC50 with DENVGFP turned out to be 37.7 µM; in the series on HIV-1GFP (Human immunodeficiency virus 1, THP-1, 72 h, read-out: EC50 HIV-1) it was 55.5 µM. In addition, the “cytotoxicity to THP-1 cells” value in the series on THP-1 cells is listed as “highly cytotoxic”. Also, the half-maximal inhibitory concentration (IC50) at POP was 567 µM. For the same compound, the “IC50 BuChE” value on BuChE (substrate ATCh) and at BuChE (substrate BuTCh) was “nid” each time. The inhibition at 200 µM in the series on HIV-1GFP (Human immunodeficiency virus 1, THP-1, read-out: inhibition of HIV-1 infection) is 94 to 99%.
